Experimental findings from paper PMC10237672, “Design and synthesis of novel anti-urease imidazothiazole derivatives with promising antibacterial activity against Helicobacter pylori” (PLOS ONE, 2023) are described below.

Converted amounts (≈) assume the structure as drawn. “Also recorded” adds a separate entry of the source.

The test system of series [1] is H. pylori. Put plainly: IC50 against H. pylori, micro broth dilution test. In kind it is cell-based, Helicobacter pylori. The settings on record: Helicobacter pylori, ATCC43504; H. pylori ATCC 43504, micro broth dilution, 72 h, OD 600 nm; read-out: IC50 value against H. pylori ± SEM. On the technique in general: Broth dilution looks for growth in wells or tubes with falling amounts of substance.

Series [2] has as its target T1, Jack bean urease (Canavalia ensiformis, UniProt P07374).
T1 construct: purchased Sigma Aldrich
Put plainly: biochemical. The class given is biochemical. As to the method: Reaction mixture comprising 40 μL of buffer (K2HPO4: 10 mmol/L, urea: 100 mmol/L, […]: 10 mmol/L, EDTA: 1 /L mmol, pH = 8.2) and 5 U/mL enzyme (10 μL) were pre-incubated with 10 μL of synthesized compounds (1 mM) and substrate urea (1 mM) were incubated at room temperature in 96 well plate for half an hour. After the incubation at room temperature, absorbance was taken at specific wavelength (630 nm) employing a microplate reader (Bio-Tek, USA) with R1 and R2 reagents in each well. The reactions were measured in triplicate fashion. To calculate the inhibition percentage following equation was used.
Percentage inhibition = 100 –[tested compound/control compound] × 100.

Series [3] has as its target T2, urease (Canavalia ensiformis, UniProt P07374).
T2 construct: purchased Sigma Aldrich
In words: Enzyme kinetics study (Michaelis-Menten, Lineweaver-Burk) of urease inhibition. In kind it is biochemical, Jack bean. As to conditions: urea substrate 0.5-2.0 mM, inhibitor 0, 1.5, 3.0, 4.5 μM, Lineweaver-Burk plot. The procedure:
The type of enzyme inhibition was determined by Michaelis-Menten kinetics experiments. In order to investigate the potential mechanism of action of the potent compound 2c, detailed kinetics studies were conducted. The initial inhibitory efficacy rates of enzyme activity were measured at four different concentrations of substrate (0.5, 1.0, 1.5 and 2.0 mM) in the presence or absence of compound 2c (0, 1.5, 3.0, 4.5 μM) against urease.
Kinetics studies were performed to determine the mode of action of compound 2c. The mechanism of inhibition of urease was determined by enzyme kinetics using urea as a substrate. To determine the type of inhibition, analyze the effect of inhibitor on Vmax and Km, a Lineweaver-Burk plot (reciprocal of reaction rates […] and reciprocal of substrate concentrations […]) was used.
Different concentrations of inhibitor 2c and substrate were used to perform kinetics. Four concentrations (0, 1.5, 3.0, 4.5 μM) of inhibitor 2c and four concentrations (0.5, 1.0, 1.5 and 2.0 mM) of substrate were used.

Series [4] has as its system H. pylori. In words: MIC against H. pylori, agar dilution method. In kind it is cell-based, Helicobacter pylori. The settings on record: Helicobacter pylori, ATCC43504; H. pylori ATCC 43504, agar dilution; read-out: MIC value against H. pylori ± SEM. (In general: In agar dilution the substance is mixed into plates at graded concentrations.)

T1 sequence (P07374 whole entry, looked up): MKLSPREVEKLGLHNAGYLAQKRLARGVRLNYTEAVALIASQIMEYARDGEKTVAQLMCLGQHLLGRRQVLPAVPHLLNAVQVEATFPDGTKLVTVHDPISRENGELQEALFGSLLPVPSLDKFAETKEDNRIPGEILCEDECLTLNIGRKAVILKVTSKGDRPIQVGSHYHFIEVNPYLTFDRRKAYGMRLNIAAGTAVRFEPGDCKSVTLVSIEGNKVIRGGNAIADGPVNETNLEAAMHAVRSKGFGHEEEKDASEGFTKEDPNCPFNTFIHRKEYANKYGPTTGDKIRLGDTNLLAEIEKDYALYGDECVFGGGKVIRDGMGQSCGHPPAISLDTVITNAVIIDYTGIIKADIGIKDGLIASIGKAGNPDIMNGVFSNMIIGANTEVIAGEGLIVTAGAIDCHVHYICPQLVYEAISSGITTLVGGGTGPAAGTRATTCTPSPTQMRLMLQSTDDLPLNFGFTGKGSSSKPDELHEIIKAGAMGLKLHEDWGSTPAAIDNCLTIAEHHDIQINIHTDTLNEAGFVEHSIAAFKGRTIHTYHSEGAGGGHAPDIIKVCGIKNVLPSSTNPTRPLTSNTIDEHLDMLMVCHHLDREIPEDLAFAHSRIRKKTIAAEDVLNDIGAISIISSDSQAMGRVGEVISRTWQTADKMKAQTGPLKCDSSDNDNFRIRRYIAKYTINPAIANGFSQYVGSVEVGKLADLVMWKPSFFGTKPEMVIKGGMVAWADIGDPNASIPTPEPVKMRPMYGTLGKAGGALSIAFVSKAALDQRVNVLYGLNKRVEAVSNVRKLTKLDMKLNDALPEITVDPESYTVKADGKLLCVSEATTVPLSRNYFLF
T2 sequence (P07374 whole entry, looked up): as above

What is called melting point is the temperature, or range, at which the solid turns liquid. What is called IC50 is the point on the concentration scale where inhibition reaches its midpoint. What is called MIC is the lowest concentration found to suppress growth. Consider `CCCS(=O)(=O)Oc1cccc(-c2nc3sccn3c2-c2cccc(S(C)(=O)=O)c2)c1` [Compound 2c, 3-(5-(3-(Methylsulfonyl)phenyl)imidazo[2,1-b]thiazol-6-yl)phenyl propane-1-sulfonate], for which the melting point was 188 to 191 °C. Moreover, the IC50 in series [1] was 281 ± 21 µM. Moreover, the IC50 in series [2] is 2.94 ± 0.05 µM. For the same molecule, the “fold more potent than thiourea positive control (urease inhibition)” value in series [2] (ratio of IC50 vs thiourea) was found to be 8 fold. Also, the “type of urease inhibition” value in series [3] is given as “competitive inhibition; also recorded: competitive inhibitor”. Further, in series [4], the MIC was 800 µM (≈ 381 µg/mL).
